Key:
[1] = molecular target: α-2,3-ST; settings: inhibition of α-2,3-ST, Hsu et al. 2005; cited from earlier work
[2] = molecular target: rat α-2,3-ST (Rattus norvegicus (Rat), UniProt Q02734); test: Inhibition constant (Ki) determination, Lineweaver-Burk plot, varying CMP-Neu5Ac; format: biochemical; settings: toward CMP-Neu5Ac
Procedure: Each compound was tested for α-2,3-ST inhibition using CMP-Neu5Ac as a substrate and a modified disaccharide with a 4,5-dimethoxy-2-nitrobenzyl group as a UV-labeled acceptor. Specifically, inhibition assays were performed in triplicate in reaction solution containing 200 mM MES buffer, 100 mM sodium chloride, 0.5 mM disodium-EDTA, 0.01% Triton X-100, 20 μM modified disaccharide, 1.4 mU α-2,3-ST and inhibitor (in dimethyl sulfoxide) in a total volume of 55. Reactions were incubated at 37° C. for 10 minutes at which point 1 mM CMP-Neu5Ac (to a final concentration 3 μM) was added. The solution was then incubated at 37° C. until a detectable amount of product was produced. The reaction was terminated by quenching the solution mixture with heat at 100° C. for 5 minutes. Enzyme activity was determined by monitoring the quantity of sialylated disaccharide product produced over time at 348 nm by RP-HPLC (Supelco Discovery® HS C18, 5 μm, 4.6 mm×25 cm). […]
Reactions were prepared in inhibition assay reaction solution described above and were incubated for 10 minutes after which 0.3, 0.15, and 0.037 mM CMP-Neu5Ac was added in the presence of inhibitor at 5, 4.5, 3.5, 2.5, and 0 μM. […] The absolute Ki value was determined from the horizontal intercept of a Lineweaver-Burk plot with […] on the vertical axis and inhibitor concentration on the horizontal axis (FIG. 1).

[3] = molecular target: Rat liver α-2,3-ST (Rattus norvegicus (Rat), UniProt Q02734); test: α-2,3-ST inhibition assay (IC50), RP-HPLC of sialylated disaccharide product; format: biochemical; settings: for IC50: α-2,3-ST, CMP-Neu5Ac substrate, triplicate, read-out: IC50; for fold potency increase over 19: vs compound 19
Rat liver α-2,3-ST, sequence (Q02734 whole entry): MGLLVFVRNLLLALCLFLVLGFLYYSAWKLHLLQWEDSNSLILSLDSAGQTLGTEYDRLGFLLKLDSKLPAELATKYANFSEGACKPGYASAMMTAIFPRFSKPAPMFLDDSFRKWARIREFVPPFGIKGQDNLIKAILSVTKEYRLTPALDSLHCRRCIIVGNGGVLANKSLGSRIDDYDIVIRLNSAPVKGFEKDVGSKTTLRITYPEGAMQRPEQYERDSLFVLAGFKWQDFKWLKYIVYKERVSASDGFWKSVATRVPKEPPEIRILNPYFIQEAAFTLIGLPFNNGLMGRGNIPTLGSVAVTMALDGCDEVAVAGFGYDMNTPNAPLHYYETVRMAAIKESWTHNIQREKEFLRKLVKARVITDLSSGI
Procedure: Compound synthesis was carried out with the following materials according the following general procedures. All chemicals and buffers were purchased from Sigma, Aldrich, or Acros Organics; and all amino acids were purchased from Advanced Chemtech. CMP-Neu5Ac was synthesized starting with sialic acid (Traving & Schauer, Cell. Mol. Life Sci., 1998, 54:1330; Schwarzkopf et al., Proc. Natl. Acad. Sci. USA, 2002, 99:5267). Synthesis of lactose acceptor was achieved as described in Harduin-Lepers et al., Biochimie, 2001, 83:727. Rat liver α-2,3-ST was obtained from CalBiochem at a concentration of 3.7 mU/μL, stored at −80° C., and used within one week. Melting points (m.p.) were recorded with a capillary melting point apparatus (Electrothermal MEL-TEMP); FT-IR spectra were recorded with Perkin Elmer FT-IR Spectrometer (Paragon 1000) in KBr pellets; ^1H and ^13C NMR spectra were recorded with Bruker AMX400 or 500 MHz instruments. Proton chemical shifts (δ) are reported in parts per million (ppm) relative to the methine singlet at 7.24 ppm for the residual CHCl3 in the deuteriochloroform, or the methyl pentet at 3.30 ppm for the residual CHD2OD in the methanol-d4. Carbon chemical shifts are reported in ppm relative to the internal ^13C signals in CDCl3 (77.0 ppm) and CD3OD-d4 (49.0 ppm). Mass spectra were obtained with a FAB JMS-700 double focusing mass spectrometer (JEOL, Tokyo, Japan), MALDI Voyager DE-PRO (Applied Biosystem Houston, USA), and ESI Finnigan LCQ mass spectrometer (Thermo Finnigan, San Jose, Calif., United States) in negative mode. […] The separation procedure was performed using H2O/0.1% trifluoroacetic acid (TFA) (A) and CH3CN/0.05% TFA (B) as eluents.
Each compound was tested for α-2,3-ST inhibition using CMP-Neu5Ac as a substrate and a modified disaccharide with a 4,5-dimethoxy-2-nitrobenzyl group as a UV-labeled acceptor. Specifically, inhibition assays were performed in triplicate in reaction solution containing 200 mM MES buffer, 100 mM sodium chloride, 0.5 mM disodium-EDTA, 0.01% Triton X-100, 20 μM modified disaccharide, 1.4 mU α-2,3-ST and inhibitor (in dimethyl sulfoxide) in a total volume of 55. Reactions were incubated at 37° C. for 10 minutes at which point 1 mM CMP-Neu5Ac (to a final concentration 3 μM) was added. The solution was then incubated at 37° C. until a detectable amount of product was produced. The reaction was terminated by quenching the solution mixture with heat at 100° C. for 5 minutes. Enzyme activity was determined by monitoring the quantity of sialylated disaccharide product produced over time at 348 nm by RP-HPLC (Supelco Discovery® HS C18, 5 μm, 4.6 mm×25 cm).

[4] = system: CL1-5 lung cancer cells; test: Cytotoxicity / cell growth, trypan blue exclusion; format: cell-based; settings: 5 μM or 10 μM, 48 hours, FBS-free media
Procedure: To determine the effect of the synthesized membrane-permeable α-2,3-ST inhibitors disclosed in Example 1 on cellular processes, in vitro cytotoxicity and adhesion assays were performed on the highly metastatic lung cancer cell line CL1-5. CL1-5 cells were plated at 1×10^6 cells per 60 mm culture dish in DMEM containing 10% fetal bovine serum (FBS) in 5% CO2. The following day the media was replaced with FBS-free media containing inhibitors at 5 μM or 10 μM concentration in DMSO. Controls cells were treated with 0.1% DMSO-containing medium without inhibitor. Cell number and viability were determined 48 hours later by trypan blue exclusion. Treatment with three α-2,3-ST inhibitors, N-Pentyonic (compound 21), Lith-Triethyl-de (compound 20), and Lith-o-Asp (compound 13), inhibited CL1-5 cell growth by between 10-20% compared to control (FIG. 2A).

[5] = system: α-2,3-sialylated antigens on CL1-1 cells; test: Cell surface α-2,3-sialylated antigens by FLOW cytometry (FITC-MAL), CL1-1; format: cell-based; settings: both 5 μM and 20 μM, five days
Procedure: (§1) To determine whether α-2,3-ST inhibition alters cell surface glycosylation, lung cancer cells were treated with Lith-o-Asp and cell surface α-2,3-sialylated antigens were detected by FLOW cytometry. Cells were treated with α-2,3-ST inhibitor for five days after which 1×10^6 lung cancer cells were collected and washed twice with Hank's balanced salt solution (HBSS). Collected cells were incubated with FITC-conjugated MAL (1:50) at 37° C. for 15-20 minutes, non-binding MAL was removed by washing with HBSS, and 3×10^4 cells were detected on a FACScalibur instrument (Becton Dickinson). Two different lung cancer cell lines were tested: CL1-1 with low metastatic potential and CL1-5 with high metastatic potential. Since CL1-5 cells were derived from the CL1-1 line by an in vitro matrix gel invasion assay (Chen et al., Cancer Res., 2001, 61:5223), these cell lines share the same genetic background. Treatment of CL1-1 cells with Lith-o-Asp reduced expression of α-2,3-sialylated antigens to around 15% of DMSO treated control cells at both 5 μM and 20 μM (FIG. 4A). In contrast, Lith-o-Asp inhibited the expression of cell surface α-2,3-sialylated antigens in the highly metastatic CL1-5 lung cancer cells in a dose-dependent manner of greater than 15% (FIG. 4B).

[6] = system: CL1-5 lung cancer cells; test: Wound healing (cell migration) assay; format: cell-based; settings: 10 μM, 48 hours, vs DMSO control
Procedure: A section of cells was then scraped from the culture plate to form a gap, and cell migration into the “wound” was observation over 48 hours in the continuous presence of α-2,3-ST inhibitor.

[7] = system: α-2,3-sialylated antigens on CL1-5 cells; test: Cell surface α-2,3-sialylated antigens by FLOW cytometry (FITC-MAL), CL1-5; format: cell-based; settings: dose-dependent, five days
Procedure: as §1

rat α-2,3-ST, sequence (Q02734 whole entry): as above

In the case of C[C@@H]1O[C@@H](O[C@H]2[C@H](O[C@H]3[C@H](O[C@H]4CC[C@@]5(C)[C@@H](CC[C@]6(C)[C@@H]5CC=C5[C@@H]7CC(C)(C)C[C@@H](O)[C@]7(C)CC[C@]56C)[C@@]4(C)CO)O[C@H](C(=O)O)[C@@H](O)[C@@H]3O)O[C@H](CO)[C@H](O)[C@@H]2O)[C@H](O)[C@H](O)[C@H]1O [Soyasaponin I], the Ki [1] is listed as 2.1 mM.

With C[C@H](CCCn1cc(CCCC(=O)O)nn1)C1CC[C@H]2C3CC[C@@H]4C[C@H](O)CC[C@]4(C)C3CC[C@]12C (stereo partly drawn) [Compound 22, 4-(1-((R)-4-((3R,5R,10S,13R,14S)-3-hydroxy-10,13-dimethyl-hexadecahydro-1H-cyclopenta[a]phenanthren-17-yl)pentyl)-1H-1,2,3-triazol-4-yl)butanoic acid] the Ki [2] was 2200 nM, the type of inhibition [2] was “noncompetitive inhibition” and the IC50 [3] was 5 µM.

With CCOP(=O)(OCC)C(Cc1cn(CCC[C@@H](C)C2CC[C@H]3C4CC[C@@H]5C[C@H](O)CC[C@]5(C)C4CC[C@]23C)nn1)C(=O)O (stereo partly drawn) [Compound 20, 2-(diethoxyphosphoryl)-3-(1-((R)-4-((3R,5R,10S,13R,14S)-3-hydroxy-10,13-dimethyl-hexadecahydro-1H-cyclopenta[a]phenanthren-17-yl)pentyl)-1H-1,2,3-triazol-4-yl)propanoic acid] the “inhibition of CL1-5 cell growth compared to control” value (“inhibition … compared to control” below) [4] was 10-20%, the “fold potency increase over 19” value [3] was 8-12 fold and the IC50 [3] was 7 µM.

For C[C@H](CCC(=O)O)C1CC[C@H]2C3CC[C@@H]4C[C@H](OC(=O)[C@@H](N)CC(=O)O)CC[C@]4(C)C3CC[C@]12C (stereo partly drawn) [Compound 13, (R)-4-((3R,5R,10S,13R,14S)-3-((S)-2-amino-3-carboxypropanoyloxy)-10,13-dimethyl-hexadecahydro-1H-cyclopenta[a]phenanthren-17-yl)pentanoic acid], the “expression of α-2,3-sialylated antigens, % of DMSO treated control cells” value [5] was “around 15%”, the “migration ability of CL1-5 cells” value ([6]; listed as Lith-O-Asp) was “inhibited cell migration” and the “migration ability of CL1-5 cells” value ([6]; listed as Lith-o-Asp) was “significantly decreased”. For the same molecule, the “inhibition … compared to control” value [4] was 10-20%, the “inhibition of expression of cell surface α-2,3-sialylated antigens” value [7] was “greater than 15%” and the “fold potency over lithocholic acid” value ([3]; vs lithocholic acid) was 2 fold. For the same molecule, the IC50 [3] was 12 µM.

In the case of C[C@H](CCC(=O)OC(C)(C)C)C1CC[C@H]2C3CC[C@@H]4C[C@H](OC(=O)CCC(=O)O)CC[C@]4(C)C3CC[C@]12C (stereo partly drawn) [Compound 14, 4-((3R,5R,10S,13R,14S)-17-((R)-5-tert-butoxy-5-oxopentan-2-yl)-10,13-dimethyl-hexadecahydro-1H-cyclopenta[a]phenanthren-3-yloxy)-4-oxobutanoic acid], the IC50 [3] is reported as 13 µM.

With C[C@H](CCCOP(=O)(Oc1ccccc1)Oc1ccccc1)C1CC[C@H]2C3CC[C@@H]4C[C@H](O)CC[C@]4(C)C3CC[C@]12C (stereo partly drawn) [Compound 8, (R)-4-((3R,5R,10S,13R,14S)-3-hydroxy-10,13-dimethyl-hexadecahydro-1H-cyclopenta[a]phenanthren-17-yl)pentyl diphenyl phosphonate] the “fold decrease in potency relative to lithocholic acid” value ([3]; vs lithocholic acid) was 5 to 17 fold and the IC50 [3] was over 100 µM.

C[C@H](CCC(=O)NCC(=O)O)C1CC[C@H]2C3CC[C@@H]4C[C@H](O)CC[C@]4(C)C3CC[C@]12C (stereo partly drawn) [Compound 9, 2-((R)-4-((3R,5R,10S,13R,14S)-3-hydroxy-10,13-dimethyl-hexadecahydro-1H-cyclopenta[a]phenanthren-17-yl)pentanamido)acetic acid] gave an IC50 [3] of 25 µM.

For C[C@H](CCCn1cc(CCC(=O)O)nn1)C1CC[C@H]2C3CC[C@@H]4C[C@H](O)CC[C@]4(C)C3CC[C@]12C (stereo partly drawn) [Compound 21, 3-(1-((R)-4-((3R,5R,10S,13R,14S)-3-hydroxy-10,13-dimethyl-hexadecahydro-1H-cyclopenta[a]phenanthren-17-yl)pentyl)-1H-1,2,3-triazol-4-yl)propanoic acid], the “inhibition … compared to control” value [4] was 10-20%, the “fold potency increase over 19” value [3] was 8-12 fold and the IC50 [3] was 10 µM.
